Values of other authors, collected in US5569647A, “Angiopeptin cyclopeptide compounds” (Adir et Compagnie, priority 1993, dated 1996).

System: cells of the vascular smooth muscle
Details: rat carotid artery, desiccation of the endothelium in air

In the case of angiopeptin, the “anti-proliferative effect in vivo on cells of the vascular smooth muscle” value is given as “anti-proliferative effect in vivo”.
